Experimental findings from ChEMBL document CHEMBL1201862, “PubChem BioAssay data set” (2004) are described below.

Assay in all cases: inhibition of tumour cell growth, NCI panel, 48 h
The test system of experiment [1] is HCC 2998.
In experiment [2] the test system is HOP-92.
Experiment [3] relates to A498.
Experiment [4] has as its system SF-295.
In experiment [5] the test system is MDA-MB-231.
Experiment [6] deals with M14.
Experiment [7] has as its system SNB-19.
Experiment [8] deals with A549.
For experiment [9], the system named is SK-MEL-2.
Experiment [10] has as its system MDA-N.
Experiment [11] deals with HCT-15.
Experiment [12] has as its system SNB-75.
In experiment [13] the test system is SK-MEL-28.
Experiment [14] relates to OVCAR-5.
Experiment [15] deals with UACC-257.
Experiment [16] has as its system OVCAR-8.
Experiment [17] relates to NCI-H23.
The test system of experiment [18] is 786-0.
Experiment [19] has as its system NCI/ADR-RES.
The subject of experiment [20] is K562.

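Cells were grown in 96-well plates and exposed to each compound for 48 hours at five concentrations; endpoints were interpolated linearly between bracketing concentrations, or set to the highest concentration if not reached. At the GI50, growth is halved.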 Calls of active or inactive are those of the source. No stated cut-off is given here; in the data, active = GI50 up to about 1.1 µM and inactive = higher. Bounds are passed on as bounds.

With `CC1(C)[C@@H]2CC[C@]1(C)[C@H](OC(=O)CSC#N)C2`, the GI50 in experiment [1] was > 100 µM (inactive); in [2], > 100 µM (inactive); in [3], > 100 µM (inactive); in experiment [4], > 100 µM (inactive); in experiment [5], > 100 µM (inactive); in experiment [6], 47.1 µM (inactive). Moreover, the GI50 is > 100 µM (inactive) in experiment [7]; > 100 µM (inactive) in experiment [8]; > 100 µM (inactive) in experiment [9]; > 100 µM (inactive) in experiment [10]; greater than 100 µM in [11]; > 100 µM (inactive) in experiment [12]. For the same compound, the GI50 in experiment [13] is > 100 µM (inactive); in experiment [14], > 100 µM (inactive); in experiment [15] it was > 100 µM (inactive); in experiment [16] it was 34.2 µM (inactive); in experiment [17] it was > 100 µM (inactive); in experiment [18], 18.3 µM (inactive). In experiment [19], the GI50 is > 100 µM (inactive).

As for `OCCCN(CCc1ccc(Cl)c(Cl)c1)CCN1CCCC1`, the GI50 in experiment [1] is 18 µM (inactive); in experiment [2], > 100 µM (inactive); in [3], 17.3 µM (inactive); in experiment [4] it was 34 µM (inactive); in [5], 32.5 µM (inactive); in [6], 17.4 µM (inactive). Further, the GI50 in experiment [7] is 68.4 µM (inactive); in [8], 58.2 µM (inactive); in experiment [9] it was 18.9 µM (inactive); in experiment [10], 17.3 µM (inactive); in experiment [11], 39.5 µM; in experiment [12], 33 µM (inactive). Besides, the GI50 in [20] is 19.5 µM (inactive); in [14], 31.4 µM (inactive); in experiment [15] it was 19.3 µM (inactive); in experiment [16], > 100 µM (inactive); in experiment [17], 69.8 µM (inactive); in experiment [18], 24 µM (inactive). Further, in experiment [19], the GI50 was 81.5 µM (inactive).

Regarding `CCCCCCCCCCCCCCN` [TETRADECYLAMINE], the GI50 in experiment [1], in [2], in experiment [3], in experiment [4], in experiment [5] and in [9] was > 100 µM (inactive) throughout. Moreover, the GI50 in [10] is > 100 µM (inactive); in experiment [11] it was greater than 100 µM; in experiment [12], > 100 µM (inactive); in experiment [20] it was > 100 µM (inactive); in experiment [13], > 100 µM (inactive); in experiment [14] it was > 100 µM (inactive). Besides, the GI50 in experiment [15], in experiment [16], in experiment [17], in [18] and in experiment [19] was > 100 µM (inactive) each time.

`COc1ccc(N2C(=O)C(C#N)=C(SC)C(C#N)C2=O)cc1` (stereo not drawn): the GI50 in [1] was > 100 µM (inactive); in experiment [2] it was 46.6 µM (inactive); in [3], > 100 µM (inactive); in experiment [4] it was > 100 µM (inactive); in [5], > 100 µM (inactive); in experiment [6], > 100 µM (inactive). The GI50 in experiment [7] is 66.5 µM (inactive); in experiment [8] it was > 100 µM (inactive); in [9], > 100 µM (inactive); in [10], > 100 µM (inactive); in [11], greater than 100 µM; in [12], 47.1 µM (inactive). Moreover, the GI50 in experiment [20], in experiment [14], in experiment [15], in experiment [16], in [18] and in experiment [19] was > 100 µM (inactive) throughout.
